The NIST ThermoML archive (doi:10.1021/je020125e)
“And” between values parts separate entries of the source, which are not always exact repeats. Equal entries are not always repeated.

Conditions: 101.33 kPa, Liquid, Hot wire method

CCC(C)C(C)C (stereo unspecified) [2,3-dimethylpentane]
Conditions | thermal conductivity | thermal diffusivity
256.3 K | 0.1178 W/m/K | –
256.7 K | 0.1175 W/m/K | –
256.93 K | – | 8.19e-08 m2/s
256.95 K | 0.1173 W/m/K | –
257.7 K | – | 8.09e-08 m2/s
258.3 K | – | 8.05e-08 m2/s
269.57 K | 0.114 W/m/K | –
269.87 K | 0.1137 W/m/K | –
270.12 K | 0.1135 W/m/K | –
270.24 K | – | 7.8e-08 m2/s
270.9 K | – | 7.79e-08 m2/s
271.49 K | – | 7.72e-08 m2/s
284.74 K | 0.1097 W/m/K | –
285.02 K | 0.1093 W/m/K | –
285.27 K | 0.1092 W/m/K | –
285.38 K | – | 7.51e-08 m2/s
286.04 K | – | 7.37e-08 m2/s
286.63 K | – | 7.35e-08 m2/s
296.31 K | 0.1057 W/m/K | –
296.36 K | 0.1063 W/m/K | –
296.65 K | 0.106 W/m/K | –
297 K | – | 7.16e-08 m2/s
297.68 K | – | 7.1e-08 m2/s
298.28 K | – | 7.02e-08 m2/s
311.34 K | 0.1022 W/m/K | –
311.66 K | 0.102 W/m/K | –
311.93 K | 0.1018 W/m/K | –
311.97 K | – | 6.79e-08 m2/s
312.7 K | – | 6.77e-08 m2/s
313.33 K | – | 6.76e-08 m2/s
321.3 K | 0.09959 W/m/K | –
321.59 K | 0.09937 W/m/K | –
321.85 K | 0.09916 W/m/K | –
321.91 K | – | 6.53e-08 m2/s
322.58 K | – | 6.46e-08 m2/s
323.18 K | – | 6.43e-08 m2/s
331.96 K | 0.097 W/m/K | –
332.21 K | 0.09651 W/m/K and 0.09662 W/m/K | –
332.5 K | – | 6.07e-08 m2/s
333.06 K | – | 5.99e-08 m2/s and 6e-08 m2/s
343.12 K | 0.09411 W/m/K | –
343.36 K | 0.09373 W/m/K | –
343.59 K | 0.09353 W/m/K | –
343.64 K | – | 5.78e-08 m2/s
344.2 K | – | 5.72e-08 m2/s
344.73 K | – | 5.72e-08 m2/s

CCCC(C)(C)C [2,2-dimethylpentane]
Conditions | thermal conductivity [W/m/K] | thermal diffusivity [m2/s]
256.16 K | 0.1094 | –
256.52 K | 0.1091 | –
256.84 K | 0.109 | –
257.01 K | – | 7.66e-08
257.9 K | – | 7.58e-08
258.7 K | – | 7.56e-08
275.45 K | 0.1041 | –
275.83 K | 0.1039 | –
276.13 K | 0.1037 | –
276.31 K | – | 7.15e-08
277.21 K | – | 7.06e-08
277.95 K | – | 7.03e-08
296.32 K | 0.09819 | –
296.69 K | 0.09803 | –
297.02 K | 0.09794 | –
297.15 K | – | 6.57e-08
298.03 K | – | 6.53e-08
298.82 K | – | 6.49e-08
317.22 K | 0.09288 | –
317.63 K | 0.09264 | –
317.95 K | 0.09251 | –
318.05 K | – | 6.1e-08
318.98 K | – | 6.05e-08
319.72 K | – | 6.03e-08
336.91 K | 0.08793 | –
337.31 K | 0.08776 | –
337.64 K | 0.0876 | –
337.72 K | – | 5.67e-08
338.63 K | – | 5.61e-08
339.39 K | – | 5.59e-08
